Source: US10245261B2, “Substituted indol-5-ol derivatives and their therapeutic applications” (NantBioScience, Inc., priority 2013, dated 2019)

Tests used:
Assay in all cases: KinaseProfiler kinase assay
Type in all cases: biochemical
Abl(h) = Abl(h) (Homo sapiens, UniProt P00519)
cSRC(h) = cSRC(h) (Homo sapiens, UniProt P12931)
Procedure: (§1) This example tests the inhibitory properties of representative compounds of the invention in c-Src kinase, Aurora-A kinase, Flt3 kinase, Ret kinase and TrkA Kinase assays (see, Daniele Fancelli et al, J. Med. Chem., 2006, 49 (24), pp 7247-7251). The KinaseProfiler™ Service Assay Protocols (Millipore) was used to test the kinase inhibiting activity of novel compounds from this invention. To do this, the buffer composition was as: 20 mM MOPS, 1 mM EDTA, 0.01% Brij-35, 5% Glycerol, 0.1% β-mercaptoethanol, 1 mg/mL BSA. Test compounds were initially dissolved in DMSO at the desired concentration, then serially diluted to the kinase assay buffer. In a final reaction volume of 25 μL, Aurora-A(h) (5-10 mU) is incubated with 8 mM MOPS pH 7.0, 0.2 mM EDTA, 200 μM LRRASLG (Kemptide), 10 mM MgAcetate and [γ^33P-ATP]. The reaction was initiated by the addition of the MgATP mix. After incubation for 40 minute at room temperature, the reaction was stopped by addition of 5 μL of a 3% phosphoric acid solution. 10 μL of the reaction was then spotted onto a P30 filtermat and washed three times for 5 minutes in 50 mM phosphoric acid and once in methanol prior to drying and scintillation counting. Wells containing substrate but no kinase and wells containing a phosphopeptide control were used to set 0% and 100% phosphorylation value, respectively.
(§2) The Kinase Hotspot℠ kinase assay was also used to test the compounds for IC50 or % inhibitions (Reaction Biology Corp.). Inhibitory IC50 values were determined by titration of compound at the optimal kinase concentration (Kinase EC50).

Aurora-A(h) = molecular target: T1, Aurora-A(h) (Homo sapiens, UniProt O14965); settings: read-out: % Inhibition @1 μM Auroro-A
T1 sequence (O14965 1-403): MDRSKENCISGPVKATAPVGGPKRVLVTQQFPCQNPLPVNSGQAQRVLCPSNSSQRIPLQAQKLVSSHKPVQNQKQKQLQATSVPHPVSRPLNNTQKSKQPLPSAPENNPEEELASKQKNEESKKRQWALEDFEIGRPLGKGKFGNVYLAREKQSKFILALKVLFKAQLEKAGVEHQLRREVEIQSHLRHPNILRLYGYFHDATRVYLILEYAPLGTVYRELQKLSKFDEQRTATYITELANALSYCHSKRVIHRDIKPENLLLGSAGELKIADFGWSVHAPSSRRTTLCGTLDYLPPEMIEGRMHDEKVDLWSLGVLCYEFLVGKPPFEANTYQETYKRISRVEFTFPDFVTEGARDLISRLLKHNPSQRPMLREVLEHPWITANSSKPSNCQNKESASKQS
Procedure: as §1, §2

Ret(h) = Ret(h) (Homo sapiens, UniProt P07949)
Sequence of Ret(h) (P07949 29-1114): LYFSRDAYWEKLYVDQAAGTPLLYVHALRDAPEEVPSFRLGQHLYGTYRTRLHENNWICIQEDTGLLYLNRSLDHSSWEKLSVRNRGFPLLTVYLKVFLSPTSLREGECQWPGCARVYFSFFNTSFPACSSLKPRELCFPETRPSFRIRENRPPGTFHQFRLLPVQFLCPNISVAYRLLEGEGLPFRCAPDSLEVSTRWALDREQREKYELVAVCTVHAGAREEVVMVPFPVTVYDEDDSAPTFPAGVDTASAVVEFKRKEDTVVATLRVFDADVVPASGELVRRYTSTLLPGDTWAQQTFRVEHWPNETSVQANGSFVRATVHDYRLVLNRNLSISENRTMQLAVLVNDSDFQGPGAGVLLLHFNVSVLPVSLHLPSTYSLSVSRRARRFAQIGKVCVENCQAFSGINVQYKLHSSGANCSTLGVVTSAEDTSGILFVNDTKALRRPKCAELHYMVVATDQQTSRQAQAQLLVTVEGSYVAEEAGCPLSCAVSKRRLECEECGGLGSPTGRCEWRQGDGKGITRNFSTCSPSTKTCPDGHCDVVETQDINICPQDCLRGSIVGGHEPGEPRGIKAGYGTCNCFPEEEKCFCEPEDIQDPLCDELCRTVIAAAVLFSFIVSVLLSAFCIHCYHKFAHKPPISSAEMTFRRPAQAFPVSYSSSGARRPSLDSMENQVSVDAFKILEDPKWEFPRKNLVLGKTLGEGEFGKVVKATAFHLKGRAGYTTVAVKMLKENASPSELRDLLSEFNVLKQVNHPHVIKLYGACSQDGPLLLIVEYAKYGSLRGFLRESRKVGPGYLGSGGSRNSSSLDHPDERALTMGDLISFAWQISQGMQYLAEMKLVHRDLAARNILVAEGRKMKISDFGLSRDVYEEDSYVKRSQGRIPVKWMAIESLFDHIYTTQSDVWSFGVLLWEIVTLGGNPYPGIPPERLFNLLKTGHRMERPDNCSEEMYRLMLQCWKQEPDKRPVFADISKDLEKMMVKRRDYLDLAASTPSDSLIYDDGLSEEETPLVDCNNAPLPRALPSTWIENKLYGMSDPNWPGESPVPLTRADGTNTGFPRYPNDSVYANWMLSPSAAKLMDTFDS
Procedure: as §1, §2

Flt3(h) = molecular target: T2, Flt3(h) (Homo sapiens, UniProt P36888)
T2 sequence (P36888 27-993): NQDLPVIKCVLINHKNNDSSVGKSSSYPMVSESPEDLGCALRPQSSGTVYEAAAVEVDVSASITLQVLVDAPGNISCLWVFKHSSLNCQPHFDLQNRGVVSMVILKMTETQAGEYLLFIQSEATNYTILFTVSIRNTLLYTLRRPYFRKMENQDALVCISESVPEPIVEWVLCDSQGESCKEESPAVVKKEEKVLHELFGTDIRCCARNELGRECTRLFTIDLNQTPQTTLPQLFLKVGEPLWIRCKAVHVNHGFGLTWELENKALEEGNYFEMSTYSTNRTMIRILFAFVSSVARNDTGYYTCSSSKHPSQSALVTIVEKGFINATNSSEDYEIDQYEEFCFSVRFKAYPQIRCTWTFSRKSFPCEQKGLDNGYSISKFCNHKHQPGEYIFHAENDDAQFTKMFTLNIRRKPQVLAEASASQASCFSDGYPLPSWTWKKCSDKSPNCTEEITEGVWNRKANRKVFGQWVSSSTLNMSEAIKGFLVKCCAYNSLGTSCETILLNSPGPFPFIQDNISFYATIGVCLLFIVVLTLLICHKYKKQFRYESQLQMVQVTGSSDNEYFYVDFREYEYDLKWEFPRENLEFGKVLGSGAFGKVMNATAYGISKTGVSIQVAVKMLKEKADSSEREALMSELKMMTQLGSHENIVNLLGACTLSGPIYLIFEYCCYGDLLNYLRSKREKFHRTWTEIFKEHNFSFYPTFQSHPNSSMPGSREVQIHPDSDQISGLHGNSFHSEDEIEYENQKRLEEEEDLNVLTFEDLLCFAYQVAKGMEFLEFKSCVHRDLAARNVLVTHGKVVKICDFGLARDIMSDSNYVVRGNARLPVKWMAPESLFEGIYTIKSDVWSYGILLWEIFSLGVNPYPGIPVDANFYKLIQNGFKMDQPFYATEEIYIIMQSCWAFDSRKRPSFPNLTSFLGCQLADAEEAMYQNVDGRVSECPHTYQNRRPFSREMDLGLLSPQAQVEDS
Procedure: as §1, §2

KDR(h) = KDR(h) (Homo sapiens, UniProt P35968)
Sequence of KDR(h) (P35968 20-1356): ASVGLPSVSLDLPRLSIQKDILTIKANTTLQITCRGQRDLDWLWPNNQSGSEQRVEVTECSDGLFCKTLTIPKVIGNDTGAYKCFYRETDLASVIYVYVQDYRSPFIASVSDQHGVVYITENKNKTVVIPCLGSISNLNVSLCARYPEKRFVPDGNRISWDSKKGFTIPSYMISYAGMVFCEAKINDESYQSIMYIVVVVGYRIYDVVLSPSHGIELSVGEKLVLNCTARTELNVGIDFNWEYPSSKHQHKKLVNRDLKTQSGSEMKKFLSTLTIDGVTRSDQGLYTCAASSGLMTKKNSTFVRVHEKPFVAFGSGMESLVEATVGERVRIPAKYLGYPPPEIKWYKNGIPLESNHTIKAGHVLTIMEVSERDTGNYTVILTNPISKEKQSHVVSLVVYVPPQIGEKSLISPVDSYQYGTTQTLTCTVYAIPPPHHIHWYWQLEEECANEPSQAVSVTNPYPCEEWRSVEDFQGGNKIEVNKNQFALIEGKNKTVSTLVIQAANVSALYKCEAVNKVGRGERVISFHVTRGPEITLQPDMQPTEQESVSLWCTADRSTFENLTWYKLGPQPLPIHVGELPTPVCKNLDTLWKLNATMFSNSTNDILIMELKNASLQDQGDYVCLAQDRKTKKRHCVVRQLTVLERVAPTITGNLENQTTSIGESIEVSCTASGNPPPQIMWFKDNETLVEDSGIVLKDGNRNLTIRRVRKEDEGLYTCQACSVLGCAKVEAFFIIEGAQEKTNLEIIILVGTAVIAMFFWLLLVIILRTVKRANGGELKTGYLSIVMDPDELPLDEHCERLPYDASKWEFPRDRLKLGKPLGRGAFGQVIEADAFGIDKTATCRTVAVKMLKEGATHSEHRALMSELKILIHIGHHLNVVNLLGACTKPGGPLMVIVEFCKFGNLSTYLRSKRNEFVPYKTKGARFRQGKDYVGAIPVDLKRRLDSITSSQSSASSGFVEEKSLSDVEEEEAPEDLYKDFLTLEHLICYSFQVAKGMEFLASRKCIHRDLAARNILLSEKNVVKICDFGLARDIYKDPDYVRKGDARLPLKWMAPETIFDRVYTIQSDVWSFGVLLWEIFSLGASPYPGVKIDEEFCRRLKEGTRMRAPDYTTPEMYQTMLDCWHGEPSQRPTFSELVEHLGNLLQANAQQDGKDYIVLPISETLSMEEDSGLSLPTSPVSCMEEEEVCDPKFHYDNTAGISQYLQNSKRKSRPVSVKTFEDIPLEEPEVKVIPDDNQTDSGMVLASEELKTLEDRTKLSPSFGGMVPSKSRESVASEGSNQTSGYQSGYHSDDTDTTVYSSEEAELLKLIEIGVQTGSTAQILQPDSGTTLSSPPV

Sequence of cSRC(h) (P12931 whole entry): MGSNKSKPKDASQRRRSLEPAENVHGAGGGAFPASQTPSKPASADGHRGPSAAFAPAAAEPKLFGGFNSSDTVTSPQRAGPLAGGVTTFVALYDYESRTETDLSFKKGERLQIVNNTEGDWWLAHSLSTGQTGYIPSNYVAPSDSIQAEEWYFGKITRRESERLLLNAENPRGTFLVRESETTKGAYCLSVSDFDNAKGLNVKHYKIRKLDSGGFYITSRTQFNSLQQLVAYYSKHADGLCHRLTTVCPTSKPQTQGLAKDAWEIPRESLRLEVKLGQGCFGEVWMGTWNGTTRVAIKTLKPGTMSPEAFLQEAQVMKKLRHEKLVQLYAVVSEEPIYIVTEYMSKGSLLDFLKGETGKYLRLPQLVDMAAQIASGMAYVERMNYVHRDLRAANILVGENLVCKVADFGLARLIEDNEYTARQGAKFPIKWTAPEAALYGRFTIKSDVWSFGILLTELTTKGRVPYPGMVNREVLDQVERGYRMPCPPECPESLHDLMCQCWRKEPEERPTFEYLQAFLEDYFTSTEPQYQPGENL
Sequence of Abl(h) (P00519 whole entry): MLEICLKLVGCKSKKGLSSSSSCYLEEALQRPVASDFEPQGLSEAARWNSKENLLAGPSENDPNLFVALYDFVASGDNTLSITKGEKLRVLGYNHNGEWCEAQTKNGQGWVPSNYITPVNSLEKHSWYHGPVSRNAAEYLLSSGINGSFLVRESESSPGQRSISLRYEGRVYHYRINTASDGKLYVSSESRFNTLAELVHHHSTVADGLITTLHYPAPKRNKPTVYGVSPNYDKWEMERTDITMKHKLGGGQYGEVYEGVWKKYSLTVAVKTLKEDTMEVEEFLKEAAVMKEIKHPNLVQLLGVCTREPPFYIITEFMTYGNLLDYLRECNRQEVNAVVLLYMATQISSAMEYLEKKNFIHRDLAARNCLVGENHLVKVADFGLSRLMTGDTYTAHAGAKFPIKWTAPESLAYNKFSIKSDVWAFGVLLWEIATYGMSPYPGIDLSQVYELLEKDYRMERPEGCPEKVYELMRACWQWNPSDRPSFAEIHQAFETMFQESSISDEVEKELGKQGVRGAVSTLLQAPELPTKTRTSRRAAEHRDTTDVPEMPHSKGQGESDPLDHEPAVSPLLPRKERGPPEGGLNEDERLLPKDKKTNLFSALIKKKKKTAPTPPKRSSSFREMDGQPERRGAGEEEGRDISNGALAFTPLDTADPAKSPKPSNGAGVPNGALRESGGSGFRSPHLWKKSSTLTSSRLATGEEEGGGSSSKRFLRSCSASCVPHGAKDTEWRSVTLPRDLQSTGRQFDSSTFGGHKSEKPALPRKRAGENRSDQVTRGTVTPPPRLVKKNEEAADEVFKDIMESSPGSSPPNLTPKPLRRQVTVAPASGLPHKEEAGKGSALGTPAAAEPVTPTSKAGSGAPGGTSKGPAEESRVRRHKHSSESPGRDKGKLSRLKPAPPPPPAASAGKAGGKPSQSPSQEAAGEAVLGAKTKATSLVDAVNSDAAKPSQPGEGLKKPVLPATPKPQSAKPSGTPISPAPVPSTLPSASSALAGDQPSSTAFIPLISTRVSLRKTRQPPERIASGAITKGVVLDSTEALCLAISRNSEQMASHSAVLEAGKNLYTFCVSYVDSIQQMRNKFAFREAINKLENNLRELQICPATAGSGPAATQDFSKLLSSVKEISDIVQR

SMILES: COCC1CCN(c2cc(Nc3cc(C4CC4)[nH]n3)nc(Oc3ccc4[nH]c(C)cc4c3F)n2)C1 (stereo not drawn) [Compound 44]
- inhibition at 1 µM (Abl(h)): 94%
- inhibition at 1 µM (cSRC(h)): 102%
- inhibition at 1 µM (Aurora-A(h)): 97%
- inhibition at 1 µM (Ret(h)): 100%
- inhibition at 1 µM (Flt3(h)): 100%
- inhibition at 1 µM (KDR(h)): 90%

SMILES: Cc1cc2c(F)c(Oc3nc(Nc4cc(C5CC5)[nH]n4)cc(N4CCN(CCF)CC4)n3)ccc2[nH]1 [Compound 45]
- inhibition at 1 µM (Abl(h)): 107%
- inhibition at 1 µM (cSRC(h)): 107%
- inhibition at 1 µM (Aurora-A(h)): 99%
- inhibition at 1 µM (Ret(h)): 102%
- inhibition at 1 µM (Flt3(h)): 101%
- inhibition at 1 µM (KDR(h)): 95%

SMILES: C/C=C/c1cc(Nc2cc(N3CCN(CCOC)CC3)nc(Oc3ccc4[nH]c(C)cc4c3F)n2)n[nH]1 [Compound 54]
- inhibition at 1 µM (Abl(h)): 108%
- inhibition at 1 µM (cSRC(h)): 99%
- inhibition at 1 µM (Aurora-A(h)): 85%
- inhibition at 1 µM (Ret(h)): 100%
- inhibition at 1 µM (Flt3(h)): 99%
- inhibition at 1 µM (KDR(h)): 96%

SMILES: C/C=C/c1cc(Nc2cc(N3CCN(S(C)(=O)=O)CC3)nc(Oc3ccc4[nH]c(C)cc4c3F)n2)n[nH]1 [Compound 55]
- inhibition at 1 µM (Abl(h)): 110%
- inhibition at 1 µM (cSRC(h)): 101%
- inhibition at 1 µM (Aurora-A(h)): 101%
- inhibition at 1 µM (Ret(h)): 101%
- inhibition at 1 µM (Flt3(h)): 99%
- inhibition at 1 µM (KDR(h)): 96%

SMILES: C/C=C/c1cc(Nc2cc(N3CCN(C(C)=O)CC3)nc(Oc3ccc4[nH]c(C)cc4c3F)n2)n[nH]1 [Compound 56]
- inhibition at 1 µM (Abl(h)): 111%
- inhibition at 1 µM (cSRC(h)): 100%
- inhibition at 1 µM (Aurora-A(h)): 99%
- inhibition at 1 µM (Ret(h)): 101%
- inhibition at 1 µM (Flt3(h)): 99%
- inhibition at 1 µM (KDR(h)): 96%

SMILES: C/C=C/c1cc(Nc2cc(N3CCS(=O)(=O)CC3)nc(Oc3ccc4[nH]c(C)cc4c3F)n2)n[nH]1 [Compound 57]
- inhibition at 1 µM (Abl(h)): 111%
- inhibition at 1 µM (cSRC(h)): 99%
- inhibition at 1 µM (Aurora-A(h)): 96%
- inhibition at 1 µM (Ret(h)): 102%
- inhibition at 1 µM (Flt3(h)): 100%
- inhibition at 1 µM (KDR(h)): 95%

SMILES: C/C=C/c1cc(Nc2cc(N3CCC(OC)CC3)nc(Oc3ccc4[nH]c(C)cc4c3F)n2)n[nH]1 [Compound 58]
- inhibition at 1 µM (Abl(h)): 112%
- inhibition at 1 µM (cSRC(h)): 101%
- inhibition at 1 µM (Aurora-A(h)): 90%
- inhibition at 1 µM (Ret(h)): 102%
- inhibition at 1 µM (Flt3(h)): 99%
- inhibition at 1 µM (KDR(h)): 96%

SMILES: C/C=C/c1cc(Nc2cc(N3CCC(O)CC3)nc(Oc3ccc4[nH]c(C)cc4c3F)n2)n[nH]1 [Compound 59]
- inhibition at 1 µM (Abl(h)): 112%
- inhibition at 1 µM (cSRC(h)): 100%
- inhibition at 1 µM (Aurora-A(h)): 94%
- inhibition at 1 µM (Ret(h)): 102%
- inhibition at 1 µM (Flt3(h)): 99%
- inhibition at 1 µM (KDR(h)): 96%

SMILES: C/C=C/c1cc(Nc2cc(N3CCC(OC)C3)nc(Oc3ccc4[nH]c(C)cc4c3F)n2)n[nH]1 (stereo not drawn) [Compound 60]
- inhibition at 1 µM (Abl(h)): 111%
- inhibition at 1 µM (cSRC(h)): 101%
- inhibition at 1 µM (Aurora-A(h)): 97%
- inhibition at 1 µM (Ret(h)): 102%
- inhibition at 1 µM (Flt3(h)): 99%
- inhibition at 1 µM (KDR(h)): 95%

SMILES: C/C=C/c1cc(Nc2cc(N3CCC(O)C3)nc(Oc3ccc4[nH]c(C)cc4c3F)n2)n[nH]1 (stereo not drawn) [Compound 61]
- inhibition at 1 µM (Abl(h)): 112%
- inhibition at 1 µM (cSRC(h)): 100%
- inhibition at 1 µM (Aurora-A(h)): 95%
- inhibition at 1 µM (Ret(h)): 102%
- inhibition at 1 µM (Flt3(h)): 100%
- inhibition at 1 µM (KDR(h)): 97%
